Data on seven molecules can be found in patent US5674879A, “Compositions including and methods of using conformationally restricted angiotensin II antagonist” (G.D. Searle & Co., priority 1995, dated 1997).

Where two headings read alike, the source gives them in different places.

Experiment [1] deals with angiotensin II. The settings on record: cited from earlier work.
Experiment [2] deals with angiotensin II. As to conditions: binding experiments, functional assays and in vivo tests; cited from earlier work.
The target in experiment [3] is smooth muscle angiotensin II receptor. Kind of experiment: Assay A: Angiotensin II Binding Activity (displacement of 125I-angiotensin II, rat uterine membrane preparation). As to conditions: 50% displacement of specifically bound 125I-AII, rat uterine membranes, 25° C., 60 min, pH 7.5. How it is done:
Assay A: Angiotensin II Binding Activity
Compounds of the invention were tested for ability to bind to the smooth muscle angiotensin II receptor using a rat uterine membrane preparation. Angiotensin II (AII) was purchased from Peninsula Labs. ^125 I-angiotensin II (specific activity of 2200 Ci/mmol) was purchased from Du Pont-New England Nuclear. Other chemicals were obtained from Sigma Chemical Co. This assay was carried out according to the method of Douglas et al [Endocrinology, 106, 120-124 (1980)]. Rat uterine membranes were prepared from fresh tissue. All procedures were carried out at 4° C. Uteri were stripped of fat and homogenized in phosphate-buffered saline at pH 7.4 containing 5 mM EDTA. The homogenate was centrifuged at 1500×g for 20 min., and the supernatant was recentrifuged at 100,000×g for 60 min. The pellet was resuspended in buffer consisting of 2 mM EDTA and 50 mM Tris-HCl (pH 7.5) to a final protein concentration of 4 mg/ml. Assay tubes were charged with 0.25 ml of a solution containing 5 mM MgCl2, 2 mM EDTA, 0.5% bovine serum albumin, 50 mM Tris-HCl, pH 7.5 and ^125 I-AII (approximately 10^5 cpm) in the absence or in the presence of unlabelled ligand. The reaction was initiated by the addition of membrane protein and the mixture was incubated at 25° C. for 60 min. The incubation was terminated with ice-cold 50 mM Tris-HCl (pH 7.5) and the mixture was filtered to separate membrane-bound labeled peptide from the free ligand. The incubation tube and filter were washed with ice-cold buffer. Filters were assayed for radioactivity in a Micromedic gamma counter. Nonspecific binding was defined as binding in the presence of 10 μM of unlabelled AII. Specific binding was calculated as total binding minus nonspecific binding. The receptor binding affinity of an AII antagonist compound was indicated by the concentration (IC50) of the tested AII antagonist which gives 50% displacement of the total specifically bound ^125 I-AII from the high affinity AII receptor. Binding data were analyzed by a nonlinear least-squares curve fitting program.

Experiment [4] deals with T1, rabbit aortic rings (angiotensin II contraction) (Oryctolagus cuniculus, UniProt P34976).
T1 construct: The thoracic aorta was removed, cleaned of adherent fat and connective tissue and then cut into 3-mm ring segments; from tissue; host or cells: rabbit thoracic aorta rings, endothelium removed
T1 sequence (P34976 1-359): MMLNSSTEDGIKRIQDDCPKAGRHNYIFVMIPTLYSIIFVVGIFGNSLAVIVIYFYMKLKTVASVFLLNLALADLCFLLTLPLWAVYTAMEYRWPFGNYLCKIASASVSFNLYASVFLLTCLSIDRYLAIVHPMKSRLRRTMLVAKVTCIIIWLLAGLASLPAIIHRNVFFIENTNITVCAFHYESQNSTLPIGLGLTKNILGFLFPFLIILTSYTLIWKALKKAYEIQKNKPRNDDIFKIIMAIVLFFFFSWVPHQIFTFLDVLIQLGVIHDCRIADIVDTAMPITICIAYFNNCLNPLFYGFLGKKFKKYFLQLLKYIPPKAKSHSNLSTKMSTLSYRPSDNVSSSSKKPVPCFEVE
Kind of experiment: Assay B: In Vitro Vascular Smooth Muscle Response for AII (rabbit aortic rings). The format is cell-based, rabbit (male New Zealand white). The settings on record: rabbit aorta rings, antagonist 10^-5 M for 5 min, 37° C., read-out: Assay B pA2 (converted). The method, then:
Assay B: In Vitro Vascular Smooth Muscle-Response for AII
The compounds of the invention were tested for antagonist activity in rabbit aortic rings. Male New Zealand white rabbits (2-2.5 kg) were sacrificed using an overdose of pentobarbital and exsanguinated via the carotid arteries. The thoracic aorta was removed, cleaned of adherent fat and connective tissue and then cut into 3-mm ring segments. The endothelium was removed from the rings by gently sliding a rolled-up piece of filter paper into the vessel lumen. The rings were then mounted in a water-jacketed tissue bath, maintained at 37° C., between moveable and fixed ends of a stainless steel wire with the moveable end attached to an FT03 Grass transducer coupled to a Model 7D Grass Polygraph for recording isometric force responses. The bath was filled with 20 ml of oxygenated (95% oxygen/5% carbon dioxide) Krebs solution of the following composition (mM): 130 NaCl, 15 NaHCO3, […], 1.2 NaH2 PO4, 1.2 MgSO4, 2.5 CaCl2, and 11.4 glucose. The preparations were equilibrated for one hour before approximately one gram of passive tension was placed on the rings. Angiotensin II concentration-response curves were then recorded (3×10^-10 to 1×10^-5 M). Each concentration of AII was allowed to elicit its maximal contraction, and then AII was washed out repeatedly for 30 minutes before rechallenging with a higher concentration of AII. Aorta rings were exposed to the test antagonist at 10^-5 M for 5 minutes before challenging with AII. Adjacent segments of the same aorta ring were used for all concentration-response curves in the presence or absence of the test antagonist. The effectiveness of the test compound was expressed in terms of pA2 values and were calculated according to H. O. Schild [Br. J. Pharmacol. Chemother., 2, 189-206 (1947)]. The pA2 value is the concentration of the antagonist which increases the IC50 value for AII by a factor of two. Each test antagonist was evaluated in aorta rings from two rabbits.

Setting [5] is: first of two values in the cell (rings from two rabbits).
Where [6] appears, read: second of two values in the cell (rings from two rabbits).

Consider `CNCC(=O)N[C@@H](CCCN=C(N)N)C(=O)N[C@H](C(=O)N[C@@H](Cc1ccc(O)cc1)C(=O)N[C@H](C(=O)N[C@@H](Cc1cnc[nH]1)C(=O)N1CCC[C@H]1C(=O)N[C@@H](C)C(=O)O)C(C)C)C(C)C` [Saralasin], for which, in experiment [1], the residual agonist activity result is given as “significant residual agonist activity”.
Turning to `CCCCc1nc(Cl)c(CC(=O)O)n1Cc1ccccc1[N+](=O)[O-]` [2-butyl-4-chloro-1-(2-nitrobenzyl)imidazole-5-acetic acid], the “specific competitive angiotensin II antagonist activity” value in experiment [2] was “specific competitive angiotensin II antagonist activity”.
On to `CCCCc1nc(Cl)c(CC(=O)O)n1Cc1ccccc1Cl` [2-n-butyl-4-chloro-1-(2-chlorobenzyl)imidazole-5-acetic acid], for which the “specific competitive angiotensin II antagonist activity” value in experiment [2] is listed as “specific competitive angiotensin II antagonist activity”.
Consider `CCCCc1ncc2n1[C@@H](c1ccc(-c3ccccc3-c3nn[nH]n3)cc1)CC[C@@H]2O` (relative stereo) [Example 14, 3-Butyl-5,6,7,8-tetrahydro-5-[2'-(1H-tetrazol-5-yl)[1,1'-biphenyl]-4-yl]imidazo[1,5-a]pyridin-trans-8-ol], for which, in experiment [3], the half-maximal inhibitory concentration (IC50) – broadly, the point on the concentration scale where inhibition reaches its midpoint – amounted to 120 nM. Further, the results for the Kb in experiment [4] (setting [5]) and in experiment [4] (setting [6]) were 331 nM and 550 nM, respectively.
The like results for `CCCCc1nc(CCCC)n2c1C(O)CCC2c1ccc(-c2ccccc2-c2nnn[nH]2)cc1` (stereo not drawn) [Example 4, 1,3-Dibutyl-5,6,7,8-tetrahydro-5-[2'-(1H-tetrazol-5-yl)[1,1'-biphenyl]-4-yl]imidazo[1,5-a]pyridin-8-ol] were, in that order, 51 nM, 22.4 nM and 14.5 nM.
`CCCCc1ncc2n1[C@@H](c1ccc(-c3ccccc3-c3nn[nH]n3)cc1)CC[C@H]2CC(=O)O` (relative stereo) [Example 20, 3-Butyl-5,6,7,8-tetrahydro-5-[2'-(1H-tetrazol-5-yl)[1,1'-biphenyl]-4-yl]imidazo[1,5-a]pyridin-cis-8-acetic acid] had an IC50 in experiment [3] of 240 nM. The Kb was 129 nM in experiment [4] (setting [5]) and 141 nM in experiment [4] (setting [6]).
The like results for `CCCCc1ncc2n1[C@@H](c1ccc(-c3ccccc3-c3nn[nH]n3)cc1)CC[C@H]2O` (relative stereo) [Example 13, 3-Butyl-5,6,7,8-tetrahydro-5-[2'-(1H-tetrazol-5-yl)[1,1'-biphenyl]-4-yl]imidazo[1,5-a]pyridin-cis-8-ol] were, in that order, 23 nM, 100 nM and 138 nM.
